From PubChem BioAssay (NCI)
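GI50 marks 50% less growth. Definition used: TGI = concentration required for complete inhibition of growth.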

Tests used:
Test in all cases: NCI-60 cell line screen, 384-well format
BT-549 breast = system: BT-549 breast
MCF7 breast = system: MCF7 breast
MDA-MB-435 melanoma = system: MDA-MB-435 melanoma
U251 glioblastoma = system: U251 glioblastoma
UACC-62 melanoma = system: UACC-62 melanoma
EKVX NSCLC = system: EKVX NSCLC
COLO 205 colon = system: COLO 205 colon
HCT-15 colon = system: HCT-15 colon
LOX IMVI melanoma = system: LOX IMVI melanoma
KM12 colon = system: KM12 colon
SK-OV-3 ovarian = system: SK-OV-3 ovarian
NCI-H23 lung = system: NCI-H23 lung
PC-3 prostate = system: PC-3 prostate
DU-145 prostate = system: DU-145 prostate
MDA-MB-468 breast = system: MDA-MB-468 breast
NCI-H226 lung = system: NCI-H226 lung
SNB-75 CNS = system: SNB-75 CNS
SF-268 CNS = system: SF-268 CNS
HCT-116 colon = system: HCT-116 colon
HS 578T breast = system: HS 578T breast
HT29 colon = system: HT29 colon
SNB-19 CNS = system: SNB-19 CNS
SR leukemia = system: SR leukemia
M14 melanoma = system: M14 melanoma
OVCAR-8 ovarian = system: OVCAR-8 ovarian
HL-60(TB) leukemia = system: HL-60(TB) leukemia
MDA-MB-231 breast = system: MDA-MB-231 breast

SMILES: COc1cc(Nc2ncc(F)c(Nc3ccc4c(n3)NC(=O)C(C)(C)O4)n2)cc(OC)c1OC
- GI50 (BT-549 breast): 4.37 µM
- TGI (BT-549 breast): > 100 µM
- GI50 (MCF7 breast): 3.9 µM
- TGI (MCF7 breast): > 100 µM
- GI50 (MDA-MB-435 melanoma): 9.68 µM
- TGI (MDA-MB-435 melanoma): > 100 µM
- GI50 (U251 glioblastoma): 38.9 µM
- TGI (U251 glioblastoma): > 100 µM
- GI50 (UACC-62 melanoma): > 100 µM
- TGI (UACC-62 melanoma): > 100 µM
- GI50 (EKVX NSCLC): 808 nM
- TGI (EKVX NSCLC): > 100 µM
- GI50 (COLO 205 colon): 4.34 µM
- TGI (COLO 205 colon): 29.8 µM
- GI50 (HCT-15 colon): 4.36 µM
- TGI (HCT-15 colon): > 100 µM
- GI50 (LOX IMVI melanoma): 6.19 µM
- TGI (LOX IMVI melanoma): > 100 µM
- GI50 (KM12 colon): 346 nM
- TGI (KM12 colon): > 100 µM
- GI50 (SK-OV-3 ovarian): 371 nM
- TGI (SK-OV-3 ovarian): > 100 µM
- GI50 (NCI-H23 lung): 538 nM
- TGI (NCI-H23 lung): > 100 µM
- GI50 (PC-3 prostate): 8.94 µM
- TGI (PC-3 prostate): > 100 µM
- GI50 (DU-145 prostate): 14.6 µM
- TGI (DU-145 prostate): > 100 µM
- GI50 (MDA-MB-468 breast): 5.78 µM
- TGI (MDA-MB-468 breast): > 100 µM
- GI50 (NCI-H226 lung): 319 nM
- TGI (NCI-H226 lung): 13.2 µM
- GI50 (SNB-75 CNS): 1170 nM
- TGI (SNB-75 CNS): 28 µM
- GI50 (SF-268 CNS): 2550 nM
- TGI (SF-268 CNS): 47.4 µM
- GI50 (HCT-116 colon): > 100 µM
- TGI (HCT-116 colon): > 100 µM
- GI50 (HS 578T breast): 805 nM
- TGI (HS 578T breast): 18.4 µM
- GI50 (HT29 colon): 10.6 µM
- TGI (HT29 colon): > 100 µM
- GI50 (SNB-19 CNS): 28.5 µM
- TGI (SNB-19 CNS): > 100 µM
- GI50 (SR leukemia): 1270 nM
- TGI (SR leukemia): 2720 nM
- GI50 (M14 melanoma): 24.7 µM
- TGI (M14 melanoma): > 100 µM
- GI50 (OVCAR-8 ovarian): 4.11 µM
- TGI (OVCAR-8 ovarian): 19.7 µM
- GI50 (HL-60(TB) leukemia): 3.37 µM
- TGI (HL-60(TB) leukemia): 8.28 µM
- GI50 (MDA-MB-231 breast): 2580 nM
- TGI (MDA-MB-231 breast): 97 µM
